Patent US20040224917A1, “Compositions and methods for combination antiviral therapy” (GILEAD SCIENCES, INC., priority 2003, published 2004)
Where a name gives a salt, the structure may show the parent alone.

How the values were obtained:
[1] = in tablets, six months at 40° C./75% RH, packaged and stored with desiccant
HIV-1 = settings: in combination with recombinant soluble CD4 castanospermine and recombinant interferon-α; cited from earlier work
HIV replication = settings: in combination with PMPA, d4T, ddC, nelfinavir, ritonavir, saquinavir; cited from earlier work
[2] = each dose regimen greater or equal to 200 mg, two weeks, monotherapy

Nc1nc(=O)n([C@@H]2CS[C@H](CO)O2)cc1F (single isomer, unassigned) [Emtricitabine]
viral suppression (HIV; [2]): ≥ 98%
viral suppression (log 10) (HIV; [2]): ≥ 1.75 log 10
reduction of viral load, average (HIV; once-a-day dose of 200 mg): 99%
reduction of viral load, average (log 10) (HIV; once-a-day dose of 200 mg): 1.92 log 10

CC(C)OC(=O)OCOP(=O)(CO[C@H](C)Cn1cnc2c(N)ncnc21)OCOC(=O)OC(C)C [Tenofovir disoproxil fumarate, 9-[(R)-2-[[bis[[(isopropoxycarbonyl)oxy]methoxy]phosphinyl]methoxy]propyl]adenine fumarate (1:1)]
loss in % label strength (significant defined as ≧5% degradation) [1]: No significant loss

Cc1cn([C@H]2C[C@H](N=[N+]=[N-])[C@@H](CO)O2)c(=O)[nH]c1=O [AZT, 3′-azido, 3′-deoxythymidine]
synergy of antiviral activity in vitro (HIV-1): synergistic antiviral activity

CC(C)(C)C(=O)OCOP(=O)(COCCn1cnc2c(N)ncnc21)OCOC(=O)C(C)(C)C [Adefovir dipivoxil]
synergy of inhibition of HIV replication (HIV replication): minor to moderate synergistic inhibition
